Results reported in patent US5610171A, “Inhibition of metastasis in patients having cancer with pyridyloxazole-2-ones” (Merrell Pharmaceuticals Inc., priority 1995, dated 1997).
Entries after “also recorded” stand apart in the source; their conditions may differ. Where two headings read alike, the source gives them in different places.

Legend:
collagen IV = assay: Adhesion of B16F1 cells to collagen IV; format: cell-based; conditions: 24 hours
Protocol: Adhesion of B16F1 Cells to Basement Membrane Proteins
Adhesion proteins (2 μg/well) were coated onto Immulon I Removawells from Dynatech and incubated for 1 hour at 37° C. The wells were then blocked for 1 hour with 400 μl PBS, pH 7.2 containing 1% bovine serum albumin (BSA) at 37° C. Prior to addition of the cell suspension, the blocking solution was aspirated.
Sub-confluent cells were washed twice with HBSS and removed form flasks by incubation for 10 minutes at 37° C. with PBS (pH 7.2), 2 mM EDTA, and 1% BSA. The cells were washed twice with MEM containing 20 mM HEPES and 0.1% BSA and resuspended in the same medium to give a cell density of […].
Cells were added to wells in 50 μl (5×10^4 cells) and incubated at 37° C. The wells were aspirated and washed three times with 400 μl PBS (pH 7.2) containing 0.1% BSA. Wells were detached and counted in 5 ml Beckman Ready Protein. Blanks were not coated with protein but were blocked with BSA as described above.

cytosolic PKC = assay: PKC activity in cytosol of pretreated B16F1 cells; format: cell-based, murine; conditions: 24 hours
Protocol: Protein Kinase C Preparation
Cytostolic and membrane-associated PKC was prepared as described in Thomas, T. P., Gopalakrishna, R. and Anderson, W. B. Hormone- and tumor promoter-induced activation of membrane association of protein kinase C in intact cells, Methodsin Enzymology, 141: 399-411, 1987. Sub-confluent B16F1 cultures (4×10^7 cells total) were washed twice with phosphate buffered saline (PBS), pH 7.2 and then twice with buffer A (20 mM Tris, pH 7.5, 2 mM EDTA, 0.5 mM EGTA, […], 2 mM phenylmethylsulfonyl fluoride (PMSF), and 2 μg/ml leupeptin). Cells were scraped from the plates in buffer A, homogenized (40 strokes) and sedimented by centrifugation for 1 hour at 100,000 g. The cytosol was stored on ice while the particulate fraction was washed with buffer B (20 mM Tris, pH 7.2, 2 mM EDTA, 0.5 mM EGTA, and 2 mM (PMSF). The membranes were resuspended with buffer B and homogenized with 10 strokes. Nonidet P-40 (1% final concentration) was added and the mixture was incubated for 30 minutes at 4° C. in a rotating mixer. Nonsolubilized material was removed by centrifugation for 10 minutes at 1400 g. Cytostolic and membrane-bound PKC was partially purified by chromatography over 1 ml columns of DE-52 (Whatman) equilibrated with buffer B. The enzyme was applied to the column and washed with 2×3 ml buffer B. Elution of PKC was then effected by the addition of 2 ml buffer B containing 100 mM NaCl.
PKC was quantitated as described in Thomas et al., ibid. The assay contained 20 mM Tris (pH 7.5), 0.75 mM CaCl, 10 mM magnesium acetate, […] histone III-S, 0.25 μg/ml leupeptin, 100 μM [gamma-^32 p]-ATP (120 cpm/pmol), 0.96 μg/ml phosphatidylserine, and 0.0064 μg/ml 1,2-diolein in a total assay volume of 250 μl. Blanks contained no calcium or phospholipids. Incubation was for 5 minutes at 30° C. at which point the reaction was terminated by the addition of 1 ml 25% trichloroacetic acid (TCA). […]
then prepared and its activity was measured as described in […]

[1] = tested on: B16F1 cells / human umbilical vein endothelial cells (HUVEC); assay: Adhesion of B16F1 melanoma cells to endothelial cells (HUVEC); format: cell-based, murine B16F1 cells; human HUVEC; conditions: for Adherent B16F1 Cells, Mean +/- SE / activity at 50 µM: 50 μM, 24 hours treatment; for activity at 50 µM: Mus musculus, read-out: B16F1 cells adhered expressed as percent of control
Protocol: Adhesion of Tumor Cells to Endothelial Cells
Round 15 mm Thermanox tissue culture cover slips from Lux were placed in Corning 12-well, 22 mm diameter tissue culture clusters. HUVEC (2×10^6) were added to each well and grown to confluency. Sub-confluent B16F1 cells were labeled with 1 μCi/ml [^3 H]-thymidine (New England Nuclear, 78.5 Ci/mmol) for 24 hours at 37° C.
In preparation for the adhesion assay, the tissue culture wells containing either HUVEC or no cells were blocked with MEM containing 20 mM HEPES and 1% BSA for 1 hour at 37° C. B16F1 cells were removed from the flasks as described above for adhesion to basement membrane proteins and diluted to a density of 2×10^5 viable cells/ml in MEM (viability determined by trypan blue exclusion).
Blocking solution was aspirated from the wells and 1 ml of cells were added per well and incubated at 37° C. Nonadherent cells were washed from coverslips as described in Wright, P. S., Cross-Doersen, D., McCann, P. P. and Bitonti, A. J., Plasmodium falciparum: a rapid assay for cytoadherence of [^3 H]-hypoxanthine-labeled infected erythrocytes to human melanoma cells, Exp. Parasitol., 71: 346-349, 1990. Coverslips were retrieved from the well with forceps and dipped 10 times into a beaker of 100 ml MEM. Coverslips were placed into scintillation vials and counted in 10 ml Beckman Ready Protein.
B16F1 cells were treated with 4-propyl-5(4-pyridinyl)-
(3H)-oxazolone for 24 hours at 37° C. Cells were then
harvested and added to wells containing confluent HUVEC
cells and incubated for the time indicated at 37° C. Details
are given in Materials and Methods.

B16F1 cells = assay: Experimental lung metastasis assay (B16F1 cells treated in culture, then injected intravenously into C57BL/6 mice); format: in vivo, murine (C57BL/6 mice); conditions: for % Control (number of nodules) / Number of nodules per set of lungs, Mean +/- SE: 24 hours; for IC50: cells exposed to drugs for 24 hours, nodules counted three weeks later, read-out: B16 Metastasis IC50
Protocol: Experimental Metastasis Assay
Sub-confluent B16F1 cells were harvested by washing with HBSS followed by trypsinization for 1 minute. The cells were sedimented by centrifugation (250 g, 5 minutes) and washed twice with HBSS. Viable cells were counted after dilution with trypan blue. A single-cell suspension of 10^5 cells in 0.2 ml HBSS was injected intravenously into 16-18 C57BL/6 mice via the tail vein. Three weeks later, the number of metastatic foci in the lung were counted.

[2] = tested on: B16F1 murine melanoma cells; assay: Viability of treated B16F1 cells by [3H]-thymidine incorporation; format: cell-based; conditions: 24 hours

CCCc1[nH]c(=O)oc1-c1ccncc1 [Compound 1, 4-propyl-5(4-pyridinyl)-2(3H)-oxazolone]
adhesion to collagen IV (collagen IV): most sensitive to inhibition | PKC Activity, cytosol (cytosolic PKC; 5 μM): 7305 pmol per min per mg protein | PKC Activity, cytosol (cytosolic PKC; 25 μM): 2485 pmol per min per mg protein | PKC Activity, cytosol (cytosolic PKC; 50 μM): 3658 pmol per min per mg protein | adherence to HUVEC [1]: decreased adhesion; also recorded: less adherent | Adherent B16F1 Cells, Mean +/- SE ([1]; 5 min adhesion): 4,513 cells | Adherent B16F1 Cells, Mean +/- SE ([1]; 10 min adhesion): 7,828 cells | Adherent B16F1 Cells, Mean +/- SE ([1]; 20 min adhesion): 48,750 cells | Adherent B16F1 Cells, Mean +/- SE ([1]; 30 min adhesion): 92,084 cells | Adherent B16F1 Cells, Mean +/- SE ([1]; 60 min adhesion): 136,950 cells | activity at 50 µM ([1]; B16-F1, 5 min, 5 min adhesion): 126% | activity at 50 µM ([1]; B16-F1, 10 min, 10 min adhesion): 39% | activity at 50 µM ([1]; B16-F1, 20 min, 20 min adhesion): 60% | activity at 50 µM ([1]; B16-F1, 0.5 h, 30 min adhesion): 71% | activity at 50 µM ([1]; B16-F1, 1 h, 60 min adhesion): 110% | % Control (number of nodules) (B16F1 cells; 1 μM): 67% | Number of nodules per set of lungs, Mean +/- SE (B16F1 cells; 1 μM): 12 +/- 2.8 nodules per set of lungs | % Control (number of nodules) (B16F1 cells; 5 μM): 78% | Number of nodules per set of lungs, Mean +/- SE (B16F1 cells; 5 μM): 14 +/- 3.3 nodules per set of lungs | % Control (number of nodules) (B16F1 cells; 10 μM): 43% | Number of nodules per set of lungs, Mean +/- SE (B16F1 cells; 10 μM): 7.8 +/- 2.1 nodules per set of lungs | % Control (number of nodules) (B16F1 cells; 20 μM): 30% | Number of nodules per set of lungs, Mean +/- SE (B16F1 cells; 20 μM): 5.4 +/- 1.1 nodules per set of lungs | % Control (number of nodules) (B16F1 cells; 50 μM): 12% | Number of nodules per set of lungs, Mean +/- SE (B16F1 cells; 50 μM): 2 +/- 0.6 nodules per set of lungs | inhibition of lung metastasis (B16F1 cells; 24 hours in culture, then intravenous injection into C57BL/6 mice): 90% | IC50 (B16F1 cells; Mus musculus, B16-F1, iv): 6.8 µM | number of lung metastases (B16F1 cells; cells exposed in vitro, then injected into mice): diminished the number of lung metastases | IC50 (B16F1 cells): 7 µM | incubation time for 50% of maximum inhibition of metastasis (B16F1 cells; time dependence of incubation): ≤ 8 h | potency for inhibition of metastasis relative to H-7 (B16F1 cells; versus H-7): more potent than H-7 | potency for inhibition of metastasis relative to staurosporine (B16F1 cells; versus staurosporine): significantly less potent than staurosporine | viability of treated cells ([3H]-thymidine incorporation) [2]: equivalent to untreated cells
